According to PubChem BioAssay AID1963973 (Molecular Pharmacology Branch, DTP, NCI, 2024):
Values joined by “and” are separate entries in the source; they are usually repeats but may differ in a detail not shown here. Equal entries are not always repeated.

Test system: 883617-216-R-J1-PDC tumor spheroids, viability
Experiment: Anticancer human tumor 883617-216-R-J1-PDC patient-derived bladder carcinoma cell line growth inhibition [PI3K]
Conditions: spheroids with HUVEC and MSC; for viability, T/C: stronger effect = lower value
How it was run: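 Combination activity was assessed by viability in multicellular tumor spheroids carrying HUVEC and MSC components. Agents were tested with PI3K inhibitors from a Cmax-based top dose (or 10 microM) downward in half-log increments.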

[1] = curve of first compound, second compound 0.0316 µM
[2] = curve of first compound, second compound 0.1 µM
[3] = curve of first compound, second compound 0.316 µM
[4] = curve of first compound, second compound 1 µM
[5] = second compound 0.0316 µM, first compound 0.0316 µM
[6] = second compound 0.0316 µM, first compound 0.1 µM
[7] = second compound 0.0316 µM, first compound 0.316 µM
[8] = second compound 0.0316 µM, first compound 1 µM
[9] = second compound 0.0316 µM, first compound 3.16 µM
[10] = second compound 0.0316 µM, first compound 10 µM
[11] = second compound 0.1 µM, first compound 0.0316 µM
[12] = second compound 0.1 µM, first compound 0.1 µM
[13] = second compound 0.1 µM, first compound 0.316 µM
[14] = second compound 0.1 µM, first compound 1 µM
[15] = second compound 0.1 µM, first compound 3.16 µM
[16] = second compound 0.1 µM, first compound 10 µM
[17] = second compound 0.316 µM, first compound 0.0316 µM
[18] = second compound 0.316 µM, first compound 0.1 µM
[19] = second compound 0.316 µM, first compound 0.316 µM
[20] = second compound 0.316 µM, first compound 1 µM
[21] = second compound 0.316 µM, first compound 3.16 µM
[22] = second compound 0.316 µM, first compound 10 µM
[23] = second compound 1 µM, first compound 0.0316 µM
[24] = second compound 1 µM, first compound 0.1 µM
[25] = second compound 1 µM, first compound 0.316 µM
[26] = second compound 1 µM, first compound 1 µM
[27] = second compound 1 µM, first compound 3.16 µM
[28] = second compound 1 µM, first compound 10 µM
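Further: spheroids exposed to agents for 7 days before the viability read.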

**Q.** `CC1(C)CCC(Nc2ncc(C(F)(F)F)c(-c3c[nH]c4c(P(C)(C)=O)c(C#N)ccc34)n2)CN1` (stereo not given) + CC(Nc1ccc2c(c1)OCCn1cc(N3C(=O)OCC3C(F)F)nc1-2)C(N)=O was tested. Which IC50 (curve of first compound, second compound 0.00316 µM) did it give?
**A.** Its IC50 is < 31.6 nM.

**Q.** And the IC50 (curve of first compound, second compound 0.01 µM)?
**A.** The IC50 was < 31.6 nM.

**Q.** And the IC50 [1]?
**A.** Its IC50 is < 31.6 nM.

**Q.** What about the IC50 [2] of the same compound?
**A.** The IC50 was < 31.6 nM.

**Q.** What about the IC50 [3] of the same compound?
**A.** Its IC50 is < 31.6 nM.

**Q.** And the IC50 [4]?
**A.** Its IC50 is < 31.6 nM.

**Q.** And the viability, T/C (second compound 0.00316 µM, first compound 0.0316 µM)?
**A.** The viability, T/C was 31.5%.

**Q.** And the viability, T/C (second compound 0.00316 µM, first compound 0.1 µM)?
**A.** Its viability, T/C is 17.9%.

**Q.** And the viability, T/C (second compound 0.00316 µM, first compound 0.316 µM)?
**A.** The viability, T/C was 17.6%.

**Q.** What about the viability, T/C (second compound 0.00316 µM, first compound 1 µM) of the same compound?
**A.** The viability, T/C was 14%.

**Q.** And the viability, T/C (second compound 0.00316 µM, first compound 3.16 µM)?
**A.** Its viability, T/C is 6.49%.

**Q.** What about the viability, T/C (second compound 0.00316 µM, first compound 10 µM) of the same compound?
**A.** The viability, T/C was 0.36%.

**Q.** And the viability, T/C (second compound 0.01 µM, first compound 0.0316 µM)?
**A.** The viability, T/C was 30.4%.

**Q.** What about the viability, T/C (second compound 0.01 µM, first compound 0.1 µM) of the same compound?
**A.** The viability, T/C was 23.2%.

**Q.** And the viability, T/C (second compound 0.01 µM, first compound 0.316 µM)?
**A.** The viability, T/C was 19.7%.

**Q.** What about the viability, T/C (second compound 0.01 µM, first compound 1 µM) of the same compound?
**A.** Its viability, T/C is 18.7%.

**Q.** And the viability, T/C (second compound 0.01 µM, first compound 3.16 µM)?
**A.** The viability, T/C was 6.21%.

**Q.** And the viability, T/C (second compound 0.01 µM, first compound 10 µM)?
**A.** Its viability, T/C is 0.37%.

**Q.** What about the viability, T/C [5] of the same compound?
**A.** The viability, T/C was 30.2%.

**Q.** What about the viability, T/C [6] of the same compound?
**A.** Its viability, T/C is 18.7%.

**Q.** And the viability, T/C [7]?
**A.** Its viability, T/C is 21.8%.

**Q.** And the viability, T/C [8]?
**A.** The viability, T/C was 14.3%.

**Q.** What about the viability, T/C [9] of the same compound?
**A.** The viability, T/C was 4.74%.

**Q.** What about the viability, T/C [10] of the same compound?
**A.** Its viability, T/C is 0.17%.

**Q.** And the viability, T/C [11]?
**A.** The viability, T/C was 25.5%.

**Q.** What about the viability, T/C [12] of the same compound?
**A.** Its viability, T/C is 17.6%.

**Q.** What about the viability, T/C [13] of the same compound?
**A.** The viability, T/C was 19.1%.

**Q.** What about the viability, T/C [14] of the same compound?
**A.** The viability, T/C was 12.2%.

**Q.** What about the viability, T/C [15] of the same compound?
**A.** Its viability, T/C is 4.58%.

**Q.** And the viability, T/C [16]?
**A.** The viability, T/C was 0.1%.

**Q.** And the viability, T/C [17]?
**A.** The viability, T/C was 21.6%.

**Q.** What about the viability, T/C [18] of the same compound?
**A.** Its viability, T/C is 15.4%.

**Q.** What about the viability, T/C [19] of the same compound?
**A.** Its viability, T/C is 14.2%.

**Q.** And the viability, T/C [20]?
**A.** The viability, T/C was 10.8%.

**Q.** What about the viability, T/C [21] of the same compound?
**A.** Its viability, T/C is 3%.

**Q.** And the viability, T/C [22]?
**A.** Its viability, T/C is 0.12%.

**Q.** What about the viability, T/C [23] of the same compound?
**A.** Its viability, T/C is 13.9%.

**Q.** And the viability, T/C [24]?
**A.** Its viability, T/C is 10.4%.

**Q.** And the viability, T/C [25]?
**A.** The viability, T/C was 9.92%.

**Q.** What about the viability, T/C [26] of the same compound?
**A.** Its viability, T/C is 12.2%.

**Q.** What about the viability, T/C [27] of the same compound?
**A.** The viability, T/C was 2.77%.

**Q.** And the viability, T/C [28]?
**A.** The viability, T/C was 0.33%.

**Q.** With `C[C@@H](NC(=O)c1ncnc(N)c1Cl)c1ncc(C(=O)Nc2cc(C(F)(F)F)c(Cl)cn2)s1` as the compound, how does the viability, T/C (compound 0.1 µM) read?
**A.** The viability, T/C was 96.9% [middle of 4 runs].

**Q.** And the viability, T/C (compound 0.316 µM)?
**A.** The viability, T/C was 88.3% [middle of 4 runs].

**Q.** What about the viability, T/C (compound 1 µM) of the same compound?
**A.** The viability, T/C was 96.5% [middle of 4 runs].

**Q.** And the viability, T/C (compound 3.16 µM)?
**A.** Its viability, T/C is 93.2% (2×) and 95.3% and 100%.

**Q.** And the viability, T/C (compound 10 µM)?
**A.** Its viability, T/C is 73% [middle of 4 runs].

**Q.** And the IC50 (curve of compound)?
**A.** Its IC50 is > 10000 nM.

**Q.** For `C#Cc1c(F)ccc2cc(O)cc(-c3ncc4c(N5CC6CCC(C5)N6)nc(OCC56CCCN5CC(F)C6)nc4c3F)c12` (stereo not given) + CC(Nc1ncnc2nc[nH]c12)c1cc2cccc(Cl)c2c(=O)n1-c1ccccc1, which IC50 [1] is on record?
**A.** The IC50 was > 10000 nM.

**Q.** What about the IC50 [2] of the same compound?
**A.** Its IC50 is > 10000 nM.

**Q.** What about the IC50 [3] of the same compound?
**A.** Its IC50 is > 10000 nM.

**Q.** And the IC50 [4]?
**A.** Its IC50 is > 10000 nM.

**Q.** And the IC50 (curve of first compound, second compound 3.16 µM)?
**A.** Its IC50 is 5970 nM.

**Q.** And the IC50 (curve of first compound, second compound 10 µM)?
**A.** Its IC50 is 120 nM.

**Q.** What about the viability, T/C [5] of the same compound?
**A.** The viability, T/C was 91.5%.

**Q.** And the viability, T/C [6]?
**A.** The viability, T/C was 109%.

**Q.** And the viability, T/C [7]?
**A.** The viability, T/C was 84.2%.

**Q.** And the viability, T/C [8]?
**A.** The viability, T/C was 94.8%.

**Q.** And the viability, T/C [9]?
**A.** Its viability, T/C is 78%.

**Q.** What about the viability, T/C [10] of the same compound?
**A.** The viability, T/C was 61.1%.

**Q.** What about the viability, T/C [11] of the same compound?
**A.** Its viability, T/C is 101%.

**Q.** And the viability, T/C [12]?
**A.** Its viability, T/C is 96.7%.

**Q.** What about the viability, T/C [13] of the same compound?
**A.** Its viability, T/C is 95.1%.

**Q.** And the viability, T/C [14]?
**A.** Its viability, T/C is 84.9%.

**Q.** And the viability, T/C [15]?
**A.** Its viability, T/C is 94.8%.

**Q.** And the viability, T/C [16]?
**A.** The viability, T/C was 56.5%.

**Q.** And the viability, T/C [17]?
**A.** Its viability, T/C is 77.6%.

**Q.** And the viability, T/C [18]?
**A.** The viability, T/C was 86.1%.

**Q.** And the viability, T/C [19]?
**A.** Its viability, T/C is 78.5%.

**Q.** And the viability, T/C [20]?
**A.** Its viability, T/C is 94.3%.

**Q.** What about the viability, T/C [21] of the same compound?
**A.** Its viability, T/C is 76.4%.

**Q.** And the viability, T/C [22]?
**A.** The viability, T/C was 54.5%.

**Q.** What about the viability, T/C [23] of the same compound?
**A.** The viability, T/C was 84.1%.

**Q.** What about the viability, T/C [24] of the same compound?
**A.** The viability, T/C was 81.9%.

**Q.** And the viability, T/C [25]?
**A.** The viability, T/C was 74.2%.

**Q.** What about the viability, T/C [26] of the same compound?
**A.** The viability, T/C was 73%.

**Q.** And the viability, T/C [27]?
**A.** Its viability, T/C is 69.9%.

**Q.** What about the viability, T/C [28] of the same compound?
**A.** The viability, T/C was 49.7%.

**Q.** And the viability, T/C (second compound 3.16 µM, first compound 0.0316 µM)?
**A.** Its viability, T/C is 77.6%.

**Q.** And the viability, T/C (second compound 3.16 µM, first compound 0.1 µM)?
**A.** Its viability, T/C is 70.4%.

**Q.** What about the viability, T/C (second compound 3.16 µM, first compound 0.316 µM) of the same compound?
**A.** Its viability, T/C is 60.3%.

**Q.** And the viability, T/C (second compound 3.16 µM, first compound 1 µM)?
**A.** The viability, T/C was 70.7%.

**Q.** What about the viability, T/C (second compound 3.16 µM, first compound 3.16 µM) of the same compound?
**A.** Its viability, T/C is 55.1%.

**Q.** And the viability, T/C (second compound 3.16 µM, first compound 10 µM)?
**A.** Its viability, T/C is 44.3%.

**Q.** What about the viability, T/C (second compound 10 µM, first compound 0.0316 µM) of the same compound?
**A.** The viability, T/C was 52.1%.

**Q.** And the viability, T/C (second compound 10 µM, first compound 0.1 µM)?
**A.** The viability, T/C was 56.4%.

**Q.** What about the viability, T/C (second compound 10 µM, first compound 0.316 µM) of the same compound?
**A.** Its viability, T/C is 39.1%.

**Q.** What about the viability, T/C (second compound 10 µM, first compound 1 µM) of the same compound?
**A.** Its viability, T/C is 45.1%.

**Q.** What about the viability, T/C (second compound 10 µM, first compound 3.16 µM) of the same compound?
**A.** Its viability, T/C is 33.2%.

**Q.** What about the viability, T/C (second compound 10 µM, first compound 10 µM) of the same compound?
**A.** The viability, T/C was 26.6%.
